According to PubChem BioAssay AID330 (DTP/NCI, 2004):
Several values for one entry are separate records, joined by “and”; a condition that tells them apart may be missing. Equal entries are not always repeated. Toxic doses and inconclusive results are not listed. How the source made its calls: active means survival T/C of 150% or more; inactive means T/C below 125% in these data.

Test system: P388 leukemia ip, CD2F1 mice, survival T/C
Assay: NCI In Vivo Anticancer Drug Screen. Data for tumor model P388 Leukemia (intraperitoneal) in CD2F1 (CDF1) mice
Conditions: endpoint: median survival time, higher = longer survival
Summary of the method: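 Mice carrying the transplanted tumor received test compound or vehicle. Survival was recorded in each group, and the value is the treated-group measurement divided by that of the vehicle-treated control group.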

[1] = dose: 50.0 mg/kg/injection, schedule: Q01DX005 (ip), vehicle: Klucel (hydroxypropylcellulose) (HPC)
[2] = dose: 100.0 mg/kg/injection, schedule: Q01DX005 (ip), vehicle: Klucel (hydroxypropylcellulose) (HPC)
[3] = dose: 200.0 mg/kg/injection, schedule: Q01DX005 (ip), vehicle: Klucel (hydroxypropylcellulose) (HPC)
[4] = dose: 50.0 mg/kg/injection, schedule: Q01DX005 (ip), vehicle: saline with Tween-80
[5] = dose: 50.0 mg/kg/injection, schedule: Q01DX009 (ip), vehicle: saline with Tween-80
[6] = dose: 100.0 mg/kg/injection, schedule: Q01DX009 (ip), vehicle: saline with Tween-80
[7] = dose: 200.0 mg/kg/injection, schedule: Q01DX009 (ip), vehicle: saline with Tween-80

Measured: T/C

C=C(C)C(=O)N(C)c1nc(N(C)C)nc(N(C)C)n1
inactive: [1] 101 % of control | [2] 103 % of control | [3] 103 % of control

Cc1cc(C)[n+]2n1C(=O)C(c1ccccc1)=C2[O-]
inactive: dose: 50.0 mg/kg/injection, schedule: Q01DX005 (ip), vehicle: Klucel + Tween-80 101 % of control | dose: 100.0 mg/kg/injection, schedule: Q01DX005 (ip), vehicle: Klucel + Tween-80 102 % of control | dose: 200.0 mg/kg/injection, schedule: Q01DX005 (ip), vehicle: Klucel + Tween-80 101 % of control

O=C(Nc1ncnc2nc[nH]c12)NC1CCCCC1
inactive: dose: 0.75 mg/kg/injection, schedule: Q01DX005 (ip), vehicle: saline 106 % of control | dose: 1.5 mg/kg/injection, schedule: Q01DX005 (ip), vehicle: saline 98 % of control | dose: 3.0 mg/kg/injection, schedule: Q01DX005 (ip), vehicle: saline 95 % of control | dose: 6.25 mg/kg/injection, schedule: Q01DX005 (ip), vehicle: saline with Tween-80 89 % of control | dose: 12.5 mg/kg/injection, schedule: Q01DX005 (ip), vehicle: saline with Tween-80 98 % of control | dose: 25.0 mg/kg/injection, schedule: Q01DX005 (ip), vehicle: saline with Tween-80 86 % of control | [4] 109 % of control

C[As](C)SC1CC(OC(=O)c2ccccc2)C(OC(=O)c2ccccc2)C(COC(=O)c2ccccc2)O1 (stereo not given)
inactive: [5] 100 % of control | [6] 106 % of control | [7] 105 % of control

O=C1C=Cc2cccc3ccc(O)c1c23
inactive: [1] 104 % of control | [2] 109 % of control | [3] 104 % of control

CCCCCCCOCC(=O)OC
inactive: [5] 109 % of control | [6] 108 % of control | [7] 101 % of control

OCC1OC(n2cnc3cncnc32)C(O)C1O (stereo not given)
inactive: dose: 6.25 mg/kg/injection, schedule: Q01DX001 (ip), vehicle: saline 111 % of control | dose: 6.25 mg/kg/injection, schedule: Q04DX003 (ip), vehicle: saline 99 % of control | dose: 12.5 mg/kg/injection, schedule: Q01DX001 (ip), vehicle: saline 111 % of control | dose: 12.5 mg/kg/injection, schedule: Q04DX003 (ip), vehicle: saline 100 % of control | dose: 25.0 mg/kg/injection, schedule: Q01DX001 (ip), vehicle: saline 114 % of control | dose: 25.0 mg/kg/injection, schedule: Q04DX003 (ip), vehicle: saline 99 % of control | dose: 50.0 mg/kg/injection, schedule: Q04DX003 (ip), vehicle: saline 96 % of control and 97 % of control | dose: 100.0 mg/kg/injection, schedule: Q04DX003 (ip), vehicle: saline 100 % of control | dose: 200.0 mg/kg/injection, schedule: Q04DX003 (ip), vehicle: saline 104 % of control | dose: 400.0 mg/kg/injection, schedule: Q04DX003 (ip), vehicle: saline 104 % of control

COc1ccc2c(c1)OC(C)(C)C(c1ccccc1)=C2c1ccc(OCCBr)cc1
inactive: [1] 101 % of control | [2] 98 % of control | [3] 100 % of control

c1ccc(NC2=NCCO2)nc1
inactive: dose: 50.0 mg/kg/injection, schedule: Q04DX003 (ip), vehicle: saline with Tween-80 100 % of control | dose: 100.0 mg/kg/injection, schedule: Q04DX003 (ip), vehicle: saline with Tween-80 95 % of control | dose: 200.0 mg/kg/injection, schedule: Q04DX003 (ip), vehicle: saline with Tween-80 100 % of control

COc1cc2c(c(OC)c1OC)-c1cc3c(cc1C(OC1OC4COC(c5cccs5)OC4C(O)C1O)C1COC(=O)C1C2)OCO3 (stereo not given)
inactive: dose: 14.5 mg/kg/injection, schedule: Q01DX005 (ip), vehicle: Klucel (hydroxypropylcellulose) (HPC) 101 % of control | dose: 29.0 mg/kg/injection, schedule: Q01DX005 (ip), vehicle: Klucel (hydroxypropylcellulose) (HPC) 99 % of control | dose: 58.0 mg/kg/injection, schedule: Q01DX005 (ip), vehicle: Klucel (hydroxypropylcellulose) (HPC) 94 % of control | dose: 116.0 mg/kg/injection, schedule: Q01DX005 (ip), vehicle: Klucel (hydroxypropylcellulose) (HPC) 90 % of control

CC1N[P+]2(OC1=O)Oc1ccccc1N2C (stereo not given)
inactive: dose: 87.5 mg/kg/injection, schedule: Q04DX002 (ip), vehicle: Klucel (hydroxypropylcellulose) (HPC) 102 % of control | dose: 175.0 mg/kg/injection, schedule: Q04DX002 (ip), vehicle: Klucel (hydroxypropylcellulose) (HPC) 100 % of control | dose: 350.0 mg/kg/injection, schedule: Q04DX002 (ip), vehicle: Klucel (hydroxypropylcellulose) (HPC) 100 % of control

c1cc[n+](-[b-]2ccc3ccccc3c2)cc1
inactive: dose: 100.0 mg/kg/injection, schedule: Q01DX001 (ip), vehicle: saline with Tween-80 94 % of control | dose: 200.0 mg/kg/injection, schedule: Q01DX001 (ip), vehicle: saline with Tween-80 108 % of control | dose: 400.0 mg/kg/injection, schedule: Q01DX001 (ip), vehicle: saline with Tween-80 99 % of control

CCCCCCCCCCCCCCCC(=O)NCC(=O)NC1CC(OC2CC(O)(C(C)=O)Cc3c(O)c4c(c(O)c32)C(=O)c2c(OC)cccc2C4=O)OC(C)C1O (stereo not given)
inactive: dose: 0.75 mg/kg/injection, schedule: Q01DX009 (ip), vehicle: other 100 % of control | dose: 1.5 mg/kg/injection, schedule: Q01DX009 (ip), vehicle: other 103 % of control | dose: 3.0 mg/kg/injection, schedule: Q01DX009 (ip), vehicle: other 118 % of control

CN(C)Sc1ccc(Cl)cc1[N+](=O)[O-]
inactive: [5] 109 % of control | [6] 100 % of control | dose: 100.0 mg/kg/injection, schedule: Q01DX009 (ip), vehicle: saline 97 % of control | [7] 106 % of control | dose: 200.0 mg/kg/injection, schedule: Q01DX009 (ip), vehicle: saline 97 % of control

CC(C)CC1([N+](=O)[O-])CN(C)CC2CCCCN2C1 (stereo not given)
inactive: dose: 25.0 mg/kg/injection, schedule: Q04DX002 (ip), vehicle: water 102 % of control | dose: 50.0 mg/kg/injection, schedule: Q04DX002 (ip), vehicle: water 107 % of control | dose: 100.0 mg/kg/injection, schedule: Q04DX002 (ip), vehicle: saline 102 % of control | dose: 100.0 mg/kg/injection, schedule: Q04DX002 (ip), vehicle: water 99 % of control

CCCCc1c(O)nc2nc(-c3ccccc3)c(-c3ccccc3)nn2c1=O
inactive: dose: 3.12 mg/kg/injection, schedule: Q01DX005 (ip), vehicle: Klucel (hydroxypropylcellulose) (HPC) 107 % of control | dose: 6.25 mg/kg/injection, schedule: Q01DX005 (ip), vehicle: Klucel (hydroxypropylcellulose) (HPC) 103 % of control | dose: 12.5 mg/kg/injection, schedule: Q01DX005 (ip), vehicle: Klucel (hydroxypropylcellulose) (HPC) 94 % of control

CN1CC(=O)[O][Sn]([CH3])([CH3])[O]C(=O)C1
inactive: dose: 7.5 mg/kg/injection, schedule: Q01DX005 (ip), vehicle: Klucel (hydroxypropylcellulose) (HPC) 119 % of control | dose: 15.0 mg/kg/injection, schedule: Q01DX005 (ip), vehicle: Klucel (hydroxypropylcellulose) (HPC) 122 % of control | dose: 15.0 mg/kg/injection, schedule: Q01DX005 (ip), vehicle: saline with Tween-80 101 % of control | dose: 30.0 mg/kg/injection, schedule: Q01DX005 (ip), vehicle: Klucel (hydroxypropylcellulose) (HPC) 122 % of control | dose: 30.0 mg/kg/injection, schedule: Q01DX005 (ip), vehicle: saline with Tween-80 116 % of control

COc1cc2c(cc1OC)C1CC(=O)C(C3(O)C(=O)Nc4ccccc43)CN1CC2 (stereo not given)
inactive: dose: 100.0 mg/kg/injection, schedule: Q04DX003 (ip), vehicle: Klucel (hydroxypropylcellulose) (HPC) 99 % of control | dose: 200.0 mg/kg/injection, schedule: Q04DX003 (ip), vehicle: Klucel (hydroxypropylcellulose) (HPC) 99 % of control | dose: 400.0 mg/kg/injection, schedule: Q04DX003 (ip), vehicle: Klucel (hydroxypropylcellulose) (HPC) 112 % of control

CC1(c2ccccc2)CCC(O)CC1CC(=O)O (stereo not given)
inactive: [4] 98 % of control | dose: 100.0 mg/kg/injection, schedule: Q01DX005 (ip), vehicle: saline with Tween-80 100 % of control | dose: 200.0 mg/kg/injection, schedule: Q01DX005 (ip), vehicle: saline with Tween-80 101 % of control

CCCCOc1ccc(NC(=O)Nc2nnc(C)s2)cc1
inactive: [5] 99 % of control | [6] 89 % of control | [7] 86 % of control

N#Cc1cc([N+](=O)[O-])cnc1Sc1ncccn1
inactive: dose: 6.25 mg/kg/injection, schedule: Q01DX009 (ip), vehicle: Klucel (hydroxypropylcellulose) (HPC) 108 % of control | dose: 12.5 mg/kg/injection, schedule: Q01DX009 (ip), vehicle: Klucel (hydroxypropylcellulose) (HPC) 104 % of control | dose: 25.0 mg/kg/injection, schedule: Q01DX009 (ip), vehicle: Klucel (hydroxypropylcellulose) (HPC) 90 % of control
